Residues, ends and D or L forms follow the SMILES beside them.

The text below walks through data of patent US20020147136A1, “Compounds for targeting endothelial cells, compositions containing the same and methods for their use” (priority 2000, published 2002).

One test concerns KDR/FIk-1 receptor. The experiment in a line: Inhibition of phospho-tyrosine activation of KDR by VEGF in HUVEC. The class given is cell-based, human. Conditions: 200 μM. As to the method:
The ability of various compositions comprising TKPPR monomers or multimers to inhibit phospho-tyrosine activation of the KDR/FIk-1 receptor by VEGF was evaluated using HUVECs. Nine 100 mm confluent dishes of cultured HUVEC cells were serum starved overnight in basal (EBM) medium without any additives. The next morning the plates were divided into three groups as follows:
1. 3 Plates had their medium changed to fresh EBM medium with no additions.
After 5 minutes at 37° C. the dishes were all drained and quickly washed 3 times with cold D-PBS with Ca and Mg (Life Technologies). Lysates were prepared from each treatment group using Triton X-100 lysis buffer (20 mM Tris pH 8.0, 137 mM NaCl, 10% glycerol, 1% Triton X-100, 2 mM EDTA Supplemented with 1 mM PMSF, […] Leupeptin and Aprotinin, 1 mM sodium orthovanadate, 50 mM sodium pyrophosphate, 100 mM sodium fluoride.) The pooled lysates from each group were precleared using Protein A beads from Sigma then incubated overnight with anti-KDR antibody (Sc-504 from Santa Cruz Biotech). The immune complexes were brought down by adding fresh Protein A beads. […] The intensity of phosphorylated (active) KDR for each treatment group was determined from the PY-20 blot then normalized to the total amount of KDR present as determined by re-probing with anti-KDR (sc-315).

A further test deals with HAEC. Briefly: TKPPR-bead binding to endothelial cells under flow. Type of test: cell-based, human. Conditions: flow 1.91 mL/min, 37° C. As to the method: Circular 40 mm diameter glass coverslips (Bioptechs, Cat No. 40-1313-0319) were first derivative by dipping in 3-aminopropyltriethoxysilane (Pierce, Cat No. 80370ZZ), 20% in acetone (HPLC grade, Sigma Aldrich Cat No. 27,072-5), rinsed in acetone, and air-dried. After autoclaving, the derivatized coverslips were placed into 60 mm round, sterile culture dishes, one coverslip per dish. Five mL of a Collagen I solution (Becton Dickinson, Cat No. 40236), 41.6 μg/mL in 20 mM acetic acid (adjusted to pH 6.7 with NaOH), was added to each coverslip-containing dish. After 15 min, 0.25 mL of 11.5 mg/mL bis(sulfosuccinimidyl) suberate (Pierce, Cat No. 21580ZZ) was added to each dish and mixed in by swirling. After a 105-minute incubation, the dishes were drained and 5 mL of sterile TBS (20 mM Tris-HCl, pH 7.5, 140 mM NaCl) was added to each dish. […]
Coverslips containing confluent HAEC were mounted into a Bioptechs FCS2 parallel plate flow cell mounted on an Olympus IMT-2 inverted microscope. […] Wall shear stress T, in dynes/cm^2, was calculated using the equation (Lawrence et al., Blood 75:227-237, 1990): [formula]
Bead binding of equal numbers of red fluorescent beads conjugated with TKPPR and green fluorescent beads conjugated with glycine was monitored after increasing lengths of perfusion and variable lengths of subsequent washing with the same solution lacking microspheres.

In test [1] the test system is Human Umbilical Vein Endothelial Cells (HUVECS).
Protocol: The ability of compositions comprising a TKPPR monomer and a TKPPR multimer to inhibit ^125I-VEGF binding to endothelial cells was evaluated using HUVECs.
Test [2] has as its system Human aortic endothelial cells (HAEC). Briefly: Free TKPPR peptide inhibition of TKPPR-conjugated bead binding to HAEC. Type of test: cell-based. As to the method: HAEC were seeded into each well of an 8-well chamber slide (Collagen I Cellware, Becton Dickinson) and allowed to achieve confluence at 37° C. Solutions containing both TKPPR-beads (final concentration 4.9×10^6/mL) and green control beads (final concentration 4.9×10^6/mL) were prepared in D-PBS containing protease inhibitor cocktail (final dilution 1:50) and 0, 10, 25, 50, 100, 200, or 500 μM free TKPPR peptide. 0.25 mL of each microsphere solution was added to a well in the drained chamber slide and incubated at RT for 15 min. Two wells received the bead solution (mixed unconjugated and TKPPR beads as indicated above) lacking free competing TKPPR peptide. The slide was then washed three times with 0.5 mL D-PBS containing 0.1% Tween 20, fixed with methanol for 1 min and mounted. The three images for each level of TKPPR competition and the six images of the control were averaged and the % inhibition of binding was calculated using the following equation:
% Inhibition=100×(Control Density−Competition Density)/Control Density
A total of eleven 8-well slides were evaluated for competitive TKPPR-bead binding to HAEC on 7 different days.

On to `CC(O)C(N)C(=O)NC(CCCCN)C(=O)N1CCCC1C(=O)N1CCCC1C(=O)NC(CCCNC(=N)N)C(=O)O` [TKPPR, L-Arginine, L-threonyl-L-lysyl-L-prolyl-L-prolyl] (H-TKPPR-OH; configuration not given here), for which, in the test with KDR/FIk-1 receptor, the “effect on the ability of VEGF to activate KDR” value is listed as “no effect”. The “Beads bound at 1.53 dynes/cm^2” value in the test on HAEC was 86. Besides, the IC50 in test [1] was 250 µM. Besides, the “Average (n = 11) % Inhibition of TKPPR-bead binding” value in test [2] (free TKPPR 10 μM) was determined as 30.8%; in test [2] (free TKPPR 25 μM), 50.7%; in test [2] (free TKPPR 50 μM), 50.5%; in test [2] (free TKPPR 100 μM), 62.0%; in test [2] (free TKPPR 200 μM), 72.2%; in test [2] (free TKPPR 500 μM) it was 70.6%.
